Laboratory results from patent US8633207B2, “Quinazoline compounds and methods of use thereof” (Ambit Biosciences Corporation, priority 2010, dated 2014).

What was measured:
[1] = test system: GM-CSFR/JAK2/STAT5 pathway; assay: csTF-1 cell-based reporter assay; conditions: Homo sapiens; csTF-1 cells, GM-CSF at 2 ng/mL, 4 hours; read-out: Cell Assay: CS TF-1 reporter assay IC50
Method: csTF-1 Cell-Based Reporter Assay
csTF-1 cells are derived from the human erythroleukemia cell line that is growth dependent on GM-CSF and has an intact GM-CSFR/JAK2/STAT5 pathway. The cell line contains stably integrated beta-lactamase reporter gene under the control of the […] (irf 1) response element recognized by the activated transcription factor STATS. csTF-1 cells (Invitrogen K1219) were washed with assay media (97% OPTIMEM/0.5% dialyzed FBS/0.1 mM NEAA/1 mM Na pyr/P/S) and seeded in the same media at 5×10^5 cell/mL in T150 flask. After 16 hour incubation, cells were seeded at 2×10^5 cell/well in 50 μl volume, into Costar, clear bottom, 96-well assay plates. Serial dilutions of compounds were added to the plates with final DMSO concentration at 0.5% and GM-CSF at 2 ng/mL and the plates were then incubated at […] and 5% CO2 for 4 hours. The plates were brought to room temperature before adding Substrate Mixture according to manufacturer's protocol (Invitrogen, Catalog #K1085). The assay plates containing the substrate mixture were incubated in the dark at room temperature for 2 hours. Blue and green fluorescence was measured with excitation at 409 nm and emission at 460 nm (for blue) and excitation at 409 nm and emission at 530 nm (for green) using Spectra Max Gemini EM.

[2] = target: T1, JAK2 (Homo sapiens, UniProt O60674); assay: Competition binding assay to determine Kd against JAK kinases: JAK2
T1 construct: made in house; host or cells: T7 phage display, or HEK-293 cells (alternative)
T1 sequence (O60674 whole entry): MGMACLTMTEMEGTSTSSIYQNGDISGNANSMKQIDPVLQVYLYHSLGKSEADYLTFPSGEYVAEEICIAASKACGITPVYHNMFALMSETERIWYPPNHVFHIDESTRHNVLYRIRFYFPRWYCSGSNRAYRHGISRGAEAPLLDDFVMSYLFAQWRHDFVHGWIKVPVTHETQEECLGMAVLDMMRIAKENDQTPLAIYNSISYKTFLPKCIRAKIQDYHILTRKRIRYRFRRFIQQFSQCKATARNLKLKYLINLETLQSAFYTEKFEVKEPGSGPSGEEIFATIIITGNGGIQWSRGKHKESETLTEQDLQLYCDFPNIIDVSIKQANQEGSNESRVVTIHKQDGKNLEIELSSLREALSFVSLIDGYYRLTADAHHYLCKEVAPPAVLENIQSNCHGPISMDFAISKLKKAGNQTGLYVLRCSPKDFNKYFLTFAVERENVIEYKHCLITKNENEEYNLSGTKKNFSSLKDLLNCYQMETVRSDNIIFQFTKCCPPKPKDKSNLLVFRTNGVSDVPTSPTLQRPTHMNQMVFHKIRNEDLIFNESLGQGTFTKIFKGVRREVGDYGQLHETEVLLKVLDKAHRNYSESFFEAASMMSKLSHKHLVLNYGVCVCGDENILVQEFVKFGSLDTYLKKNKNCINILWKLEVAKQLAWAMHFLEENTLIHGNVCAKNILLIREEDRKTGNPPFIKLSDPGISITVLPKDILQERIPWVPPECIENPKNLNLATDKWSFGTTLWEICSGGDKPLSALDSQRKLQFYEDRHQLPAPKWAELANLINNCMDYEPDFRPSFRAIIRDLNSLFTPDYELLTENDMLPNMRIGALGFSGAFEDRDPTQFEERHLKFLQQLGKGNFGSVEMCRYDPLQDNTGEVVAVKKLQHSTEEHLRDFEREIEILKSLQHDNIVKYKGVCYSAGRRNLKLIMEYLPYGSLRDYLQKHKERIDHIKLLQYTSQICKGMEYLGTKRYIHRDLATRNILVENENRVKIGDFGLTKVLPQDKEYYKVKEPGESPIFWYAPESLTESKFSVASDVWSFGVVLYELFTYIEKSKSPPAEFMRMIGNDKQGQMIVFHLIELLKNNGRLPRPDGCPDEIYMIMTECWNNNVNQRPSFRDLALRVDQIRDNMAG
Excerpt: (§1) Competition Binding Assay to Determine Binding Constants (Kd) of the Compounds Against JAK Kinases
(§2) Competition binding assays used herein were developed, validated and performed as described in Fabian et al., Nature Biotechnology 2005, 23, 329-336. Kinases were produced as fusions to T7 phage (See, Fabian et al. or WO04/015142) or alternatively, the kinases were expressed in HEK-293 cells and subsequently tagged with DNA for PCR detection (See, WO08/005,310). For the binding assays, streptavidin-coated magnetic beads were treated with biotinylated affinity ligands for 30 min at rt to generate affinity resins. The liganded beads were blocked with excess biotin and washed with blocking buffer (SeaBlock (Pierce), 1% BSA, 0.05% Tween 20, 1 mM DTT) to remove unbound ligand and to reduce non-specific binding. Binding reactions were assembled by combining kinase, liganded affinity beads, and test compounds in 1× binding buffer (20% SeaBlock, 0.17×PBS, 0.05% Tween 20, 6 mM DTT). Test compounds were prepared as 100× stocks in DMSO and rapidly diluted into the aqueous environment. DMSO was added to control assays lacking a test compound. Primary screen interactions were performed in polypropylene 384-well plates in a final volume of 34 μL, while Kd determinations were performed in polystyrene 96-well plates in a final volume of 135 μL. The assay plates were incubated at room temperature with shaking for 1 hour, long enough for binding reactions to reach equilibrium, and the affinity beads were washed extensively with wash buffer (1×PBS, 0.05% Tween 20) to remove unbound protein. The beads were then resuspended in elution buffer (1×PBS, 0.05% Tween 20, 2 μM non-biotinylated affinity ligand) and incubated at room temperature with shaking for 30 min. The kinase concentration in the eluates was measured by quantitative PCR. Each kinase was tested individually against each compound. Kds were determined using eleven serial threefold dilutions. A selectivity score, which is a quantitative measure of selectivity of a compound against a panel of enzymes, may be calculated for a compound by dividing the number of enzymes for which a compound meets a set criteria, (for example, a binding constant of 100 nM or less), by the total number of enzymes tested.

[3] = target: T2, JAK3 (Homo sapiens, UniProt P52333); assay: Competition binding assay to determine Kd against JAK kinases: JAK3
T2 construct: made in house; host or cells: T7 phage display, or HEK-293 cells (alternative)
T2 sequence (P52333 1-1124): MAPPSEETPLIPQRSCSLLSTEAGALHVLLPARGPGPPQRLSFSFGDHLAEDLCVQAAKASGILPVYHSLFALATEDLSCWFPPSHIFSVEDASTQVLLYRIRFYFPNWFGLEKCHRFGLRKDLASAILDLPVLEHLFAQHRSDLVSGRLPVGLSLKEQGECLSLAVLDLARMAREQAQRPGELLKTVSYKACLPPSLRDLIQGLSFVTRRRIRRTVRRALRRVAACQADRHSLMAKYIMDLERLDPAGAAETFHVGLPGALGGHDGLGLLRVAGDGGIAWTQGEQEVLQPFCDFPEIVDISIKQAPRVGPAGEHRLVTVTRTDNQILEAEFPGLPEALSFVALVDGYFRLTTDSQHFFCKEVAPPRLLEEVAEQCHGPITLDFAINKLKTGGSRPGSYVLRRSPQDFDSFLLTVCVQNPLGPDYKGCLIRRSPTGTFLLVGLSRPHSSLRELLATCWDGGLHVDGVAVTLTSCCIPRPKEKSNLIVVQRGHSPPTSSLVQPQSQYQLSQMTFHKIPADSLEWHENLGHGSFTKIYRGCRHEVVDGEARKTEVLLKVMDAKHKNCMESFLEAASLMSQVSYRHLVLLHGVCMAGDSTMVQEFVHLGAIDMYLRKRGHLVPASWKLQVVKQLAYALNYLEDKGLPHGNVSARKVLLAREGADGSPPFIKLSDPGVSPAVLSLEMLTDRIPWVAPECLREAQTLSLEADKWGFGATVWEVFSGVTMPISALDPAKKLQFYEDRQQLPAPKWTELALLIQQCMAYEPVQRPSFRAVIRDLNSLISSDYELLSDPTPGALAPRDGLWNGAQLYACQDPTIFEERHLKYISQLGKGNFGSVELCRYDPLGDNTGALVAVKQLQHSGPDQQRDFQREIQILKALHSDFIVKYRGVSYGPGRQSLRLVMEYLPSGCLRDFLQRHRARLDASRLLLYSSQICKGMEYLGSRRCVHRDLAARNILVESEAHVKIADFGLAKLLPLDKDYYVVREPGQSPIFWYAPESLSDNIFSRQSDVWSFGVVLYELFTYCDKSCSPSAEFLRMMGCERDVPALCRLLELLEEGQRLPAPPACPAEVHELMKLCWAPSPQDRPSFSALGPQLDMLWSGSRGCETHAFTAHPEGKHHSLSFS
Excerpt: as §1, §2

[4] = target: T3, Tyk2 (Homo sapiens, UniProt P29597); assay: Competition binding assay to determine Kd against JAK kinases: Tyk2
T3 construct: made in house; host or cells: T7 phage display, or HEK-293 cells (alternative)
T3 sequence (P29597 whole entry): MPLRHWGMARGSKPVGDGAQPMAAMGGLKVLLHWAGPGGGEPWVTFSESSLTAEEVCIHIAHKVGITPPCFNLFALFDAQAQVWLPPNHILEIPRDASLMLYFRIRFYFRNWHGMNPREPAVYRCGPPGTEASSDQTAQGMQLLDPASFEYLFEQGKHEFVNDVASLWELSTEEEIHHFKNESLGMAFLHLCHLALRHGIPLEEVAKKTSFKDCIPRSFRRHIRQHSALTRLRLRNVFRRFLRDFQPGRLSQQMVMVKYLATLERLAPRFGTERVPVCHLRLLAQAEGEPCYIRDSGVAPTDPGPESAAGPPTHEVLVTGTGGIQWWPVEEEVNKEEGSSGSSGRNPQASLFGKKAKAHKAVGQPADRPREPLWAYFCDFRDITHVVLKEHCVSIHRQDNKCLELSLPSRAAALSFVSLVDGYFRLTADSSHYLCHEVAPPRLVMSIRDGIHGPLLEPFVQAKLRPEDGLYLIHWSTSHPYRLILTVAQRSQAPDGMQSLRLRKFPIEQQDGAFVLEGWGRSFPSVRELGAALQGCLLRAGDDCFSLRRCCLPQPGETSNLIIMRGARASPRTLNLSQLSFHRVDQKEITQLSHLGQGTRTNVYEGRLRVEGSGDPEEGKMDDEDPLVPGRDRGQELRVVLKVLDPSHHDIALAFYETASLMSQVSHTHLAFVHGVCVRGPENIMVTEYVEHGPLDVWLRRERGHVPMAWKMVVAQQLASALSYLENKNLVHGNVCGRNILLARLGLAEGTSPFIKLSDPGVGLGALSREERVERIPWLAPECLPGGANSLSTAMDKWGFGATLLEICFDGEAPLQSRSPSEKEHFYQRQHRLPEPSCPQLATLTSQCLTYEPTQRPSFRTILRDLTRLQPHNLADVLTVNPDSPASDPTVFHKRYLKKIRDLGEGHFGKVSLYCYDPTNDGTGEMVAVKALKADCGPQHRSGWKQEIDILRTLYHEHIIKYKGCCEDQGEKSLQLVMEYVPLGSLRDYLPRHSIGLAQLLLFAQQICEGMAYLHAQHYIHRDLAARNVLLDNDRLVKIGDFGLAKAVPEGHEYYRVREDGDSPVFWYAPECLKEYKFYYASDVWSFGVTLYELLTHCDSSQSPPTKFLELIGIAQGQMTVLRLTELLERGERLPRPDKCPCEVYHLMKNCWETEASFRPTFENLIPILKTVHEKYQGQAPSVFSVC
Excerpt: as §1, §2

Row | IC50 [1] | Kd [2] | Kd [3] | Kd [4] | Compound
1 | 100 to 500 nM | ≤ 1 nM | ≤ 10 nM | ≤ 10 nM | Cc1cc(Nc2nc(C(F)(F)c3ccc(F)cn3)nc3cc(S(C)(=O)=O)ccc23)n[nH]1 [Example 38, 2-(difluoro(5-fluoropyridin-2-yl)methyl)-N-(5-methyl-1H-pyrazol-3-yl)-7-(methylsulfonyl)quinazolin-4-amine]
2 | 100 to 500 nM | ≤ 1 nM | ≤ 10 nM | ≤ 10 nM | Cc1cc(Nc2nc(C(F)(F)c3ccc(F)cn3)nc3c(N4CCOCC4=O)cccc23)n[nH]1 [Example 42, 4-(2-(difluoro(5-fluoropyridin-2-yl)methyl)-4-((5-methyl-1H-pyrazol-3-yl)amino)quinazolin-8-yl)morpholin-3-one]
3 | ≤ 100 nM | ≤ 1 nM | 10 to 100 nM | ≤ 10 nM | Cc1cc(Nc2nc(C(F)(F)c3ccc(F)cn3)nc3cc(Cl)ccc23)n[nH]1 [Example 16, 7-chloro-2-(difluoro(5-fluoropyridin-2-yl)methyl)-N-(5-methyl-1H-pyrazol-3-yl)quinazolin-4-amine]
4 | ≤ 100 nM | ≤ 1 nM | ≤ 10 nM | ≤ 10 nM | Cc1cc(Nc2nc(C(F)(F)c3ccc(F)cn3)nc3c(C)cccc23)n[nH]1 [Example 10, 2-(Difluoro(5-fluoropyridin-2-yl)methyl)-8-methyl-N-(5-methyl-1H-pyrazol-3-yl)quinazolin-4-amine]
5 | 100 to 500 nM | ≤ 1 nM | 10 to 100 nM | ≤ 10 nM | Cc1cc(Nc2nc(C(F)(F)c3ccc(F)cn3)nc3c(C4CC4)cccc23)n[nH]1 [Example 51, 8-cyclopropyl-2-(difluoro(5-fluoropyridin-2-yl)methyl)-N-(5-methyl-1H-pyrazol-3-yl)quinazolin-4-amine]
6 | ≤ 100 nM | ≤ 1 nM | ≤ 10 nM | ≤ 10 nM | COc1cccc2c(Nc3cc(C)[nH]n3)nc(C(F)(F)c3ccc(F)cn3)nc12 [Example 43, 2-(difluoro(5-fluoropyridin-2-yl)methyl)-8-methoxy-N-(5-methyl-1H-pyrazol-3-yl)quinazolin-4-amine]
7 | ≤ 100 nM | ≤ 1 nM | 10 to 100 nM | ≤ 10 nM | Cc1cc(Nc2nc(C(F)(F)c3ccc(F)cn3)nc3cc(F)ccc23)n[nH]1 [Example 15, 2-(difluoro(5-fluoropyridin-2-yl)methyl)-7-fluoro-N-(5-methyl-1H-pyrazol-3-yl)quinazolin-4-amine]
8 | ≤ 100 nM | ≤ 1 nM | ≤ 10 nM | ≤ 10 nM | Cc1cc(Nc2nc(C(F)(F)c3ccc(F)cn3)nc3c(F)cccc23)n[nH]1 [Example 12, 2-(difluoro(5-fluoropyridin-2-yl)methyl)-8-fluoro-N-(3-methyl-1H-pyrazol-5-yl)quinazolin-4-amine]
9 | ≤ 100 nM | ≤ 1 nM | ≤ 10 nM | ≤ 10 nM | Cc1cc(Nc2nc(C(F)(F)c3ccc(F)cn3)nc3c(C(=O)NC4COC4)cccc23)n[nH]1 [Example 45, 2-(difluoro(5-fluoropyridin-2-yl)methyl)-4-((5-methyl-1H-pyrazol-3-yl)amino)-N-(oxetan-3-yl)quinazoline-8-carboxamide]
10 | ≤ 100 nM | 1 to 10 nM | 10 to 100 nM | ≤ 10 nM | Cc1cc(Nc2nc(C(F)(F)c3ccc(F)cn3)nc3cc(C#N)ccc23)n[nH]1 [Example 8, 2-(difluoro(5-fluoropyridin-2-yl)methyl)-4-(5-methyl-1H-pyrazol-3-ylamino)quinazoline-7-carbonitrile]
11 | 100 to 500 nM | 1 to 10 nM | > 100 nM | 10 to 100 nM | Cc1cc(Nc2nc(C(F)(F)c3ccc(F)cn3)nc3c(C(F)(F)F)cccc23)n[nH]1 [Example 33, 2-(difluoro(5-fluoropyridin-2-yl)methyl)-N-(5-methyl-1H-pyrazol-3-yl)-8-(trifluoromethyl)quinazolin-4-amine]
12 | > 500 nM | > 10 nM | > 100 nM | 10 to 100 nM | Fc1ccc(C(F)(F)c2nc(Nc3nc[nH]n3)c3ccccc3n2)nc1 [Example 31, 2-(difluoro(5-fluoropyridin-2-yl)methyl)-N-(1H-1,2,4-triazol-3-yl)quinazolin-4-amine]
13 | ≤ 100 nM | ≤ 1 nM | ≤ 10 nM | ≤ 10 nM | Cc1cc(Nc2nc(C(F)(F)c3ccc(F)cn3)nc3cc(C4CC4)ccc23)n[nH]1 [Example 9, 7-cyclopropyl-2-(difluoro(5-fluoropyridin-2-yl)methyl)-N-(5-methyl-1H-pyrazol-3-yl)quinazolin-4-amine]
14 | ≤ 100 nM | ≤ 1 nM | 10 to 100 nM | ≤ 10 nM | Fc1ccc(C(F)(F)c2nc(Nc3cc[nH]n3)c3ccccc3n2)nc1 [Example 4, 2-(difluoro(5-fluoropyridin-2-yl)methyl)-N-(1H-pyrazol-3-yl)quinazolin-4-amine]
15 | – | ≤ 1 nM | ≤ 10 nM | ≤ 10 nM | COC(=O)c1cccc2c(Nc3cc(C)[nH]n3)nc(C(F)(F)c3ccc(F)cn3)nc12 [Example 47, methyl 2-(difluoro(5-fluoropyridin-2-yl)methyl)-4-((5-methyl-1H-pyrazol-3-yl)amino)quinazoline-8-carboxylate]
16 | ≤ 100 nM | ≤ 1 nM | ≤ 10 nM | ≤ 10 nM | Cc1cc(Nc2nc(C(F)(F)c3ccc(F)cn3)nc3c(NS(C)(=O)=O)cccc23)n[nH]1 [Example 52, N-(2-(difluoro(5-fluoropyridin-2-yl)methyl)-4-((5-methyl-1H-pyrazol-3-yl)amino)quinazolin-8-yl)methanesulfonamide]
